16 molecules from BindingDB's records for doi:10.1016/j.bmcl.2011.06.080 (Johnson & Johnson Pharmaceutical Research and Development, 2011) can be followed below.

The nature of the test: Antagonist activity at CCR2 in human THP1 cells assessed as inhibition of MCP1-induced chemotaxis after 3 hrs.
Take `N[C@]1(c2ccccc2)CC[C@H](N2CC(NC(=O)CNC(=O)c3cccc(C(F)(F)F)c3)C2)CC1`: the IC50 worked out at 160 nM.
For the molecule `O=C(CNC(=O)c1cccc(C(F)(F)F)c1)NC1CN([C@H]2CC[C@](O)(c3ccc4c(c3)OCO4)CC2)C1`, the half-inhibitory concentration (IC50) was 27 nM.
As for `COc1ccc([C@]2(O)CC[C@@H](N3CC(NC(=O)CNC(=O)c4cccc(C(F)(F)F)c4)C3)CC2)cc1`, the half-maximal inhibitory concentration (IC50) came out at 67 nM.
With `O=C(CNC(=O)c1cccc(C(F)(F)F)c1)NC1CN([C@H]2CC[C@H](c3ccncc3O)CC2)C1` the figure was 57 nM; with `O=C(CNC(=O)c1cccc(C(F)(F)F)c1)NC1CN([C@H]2CC[C@H](c3ccc(O)cn3)CC2)C1`, 14 nM; with `COc1cnccc1[C@H]1CC[C@H](N2CC(NC(=O)CNC(=O)c3cccc(C(F)(F)F)c3)C2)CC1`, 28 nM.
As for `COc1ccc([C@H]2CC[C@H](N3CC(NC(=O)CNC(=O)c4cccc(C(F)(F)F)c4)C3)CC2)cn1`, the half-maximal inhibitory concentration (IC50) was found to be 11 nM.
As for `O=C(CNC(=O)c1cccc(C(F)(F)F)c1)NC1CN([C@H]2CC[C@H](c3cccnc3)CC2)C1`, the IC50 was found to be 52 nM.
Take `O=C(CNC(=O)c1cccc(C(F)(F)F)c1)NC1CN([C@H]2CC[C@H](c3ccc4nc[nH]c4c3)CC2)C1`: the half-inhibitory concentration (IC50) was 21 nM.
Take `O=C(CNC(=O)c1cccc(C(F)(F)F)c1)NC1CN([C@H]2CC[C@H](c3ccc(N4CCCC4)cc3)CC2)C1`: the 50% inhibitory concentration (IC50) amounted to 240 nM.
Take `O=C(CNC(=O)c1cccc(C(F)(F)F)c1)NC1CN([C@H]2CC[C@H](c3ccc(C(=O)O)cc3)CC2)C1`: the IC50 worked out at 1300 nM.
With `O=C(CNC(=O)c1cccc(C(F)(F)F)c1)NC1CN([C@H]2CC[C@H](c3ccc(O)cc3)CC2)C1`, the half-maximal inhibitory concentration (IC50) was 42 nM.
`COc1ccc([C@H]2CC[C@H](N3CC(NC(=O)CNC(=O)c4cccc(C(F)(F)F)c4)C3)CC2)cc1`: the IC50 is 25 nM.
For the molecule `O=C(CNC(=O)c1cccc(C(F)(F)F)c1)NC1CN([C@H]2CC[C@@H](c3ccc4c(c3)OCO4)CC2)C1`, the IC50 is 15 nM.
The value for `O=C(CNC(=O)c1cccc(C(F)(F)F)c1)NC1CN([C@H]2CC[C@](O)(c3ccc4c(c3)OCC4)CC2)C1` was 52 nM.
On to `COc1cc([C@H]2CC[C@H](N3CC(NC(=O)CNC(=O)c4cccc(C(F)(F)F)c4)C3)CC2)ccn1`, for which the IC50 stood at 170 nM.
